From US8647119B1, “Methods and kits with fluorescent probes for caries detection” (President and Fellows of Harvard College, priority 2006, dated 2014)
“And” between values parts separate entries of the source, which are not always exact repeats. Equal entries are not always repeated.

What was measured:
[1] = cited from earlier work
[2] = Detection probes on interproximal models of extracted human teeth; conditions: for optical signal of early stage caries lesion with bound probe (photograph): synthetic tooth preparation, FIG. 3-8
Procedure: Interproximal models of extracted human teeth (molars and premolars) were fabricated using silicon impression materials. Interproximal enamel caries at about […] depth and at about 1.5 mm depth were prepared by using areas of interproximal contact regions. The dental preparations having synthetic caries were assessed by radiographic films (bitewings) and a microscope.
A cotton ball was saturated with the detection probe, and placed in contact with the region of the interproximal enamel caries. The bound probe was observed by illuminating over a varying set of different wavelengths of excitation light, followed by detecting light of fluorescent emissions. Furthermore, absorbance of the illuminating wavelengths was detected as appropriate for each probe.
Each tooth preparation having interproximal enamel caries and bound probe was illuminated and photographed.
(§1) Probes were tested for appropriate concentration, kinetics of binding and retention. Intensity of the illumination light, and the size of the illumination light beam were varied, and data were recorded for each probe. […] The concentration of each probe was varied to determine an optimum concentration for binding during a time period suitable for dental use. Durations of contacting were also tested, for example about 10 seconds, about 20 seconds, about 40 seconds, or about 60 seconds.

[3] = part of regular human diet or excess excreted; cited from earlier work
[4] = Intensity and duration of fluorescence of diluted probes bound to caries; conditions: deep and shallow lesions
Procedure: as §1

[5] = Hydrogen peroxide removal of OsteoSense 750 from five teeth having caries, absorbance at 750 nm; conditions: teeth A to E

Compound	optical signal of early stage caries lesion with bound probe (photograph) [2]	known toxicity [3]	also measured
Cc1cc2nc3c(=O)[nH]c(=O)nc-3n(C[C@H](O)[C@H](O)[C@H](O)CO)c2cc1C [Riboflavin]	–	–	water solubility [1]: water soluble
C1=Cc2cc3ccc(cc4nc(cc5ccc(cc1n2)[nH]5)C=C4)[nH]3 [Porphyrin]	Fluorescence of an early stage caries lesion was observed	no known toxicity	–
COc1cccc2c1C(=O)c1c(O)c3c(c(O)c1C2=O)C[C@@](O)(C(=O)CO)C[C@@H]3O[C@H]1C[C@H](N)[C@H](O)[C@H](C)O1 [Doxorubicin]	Fluorescence of an early stage caries lesion was observed	–	–
C=Cc1c(C)c2cc3nc(c4c5[n-]c(cc6nc(cc1[n-]2)C(C)=C6CC)c(C)c5C(=O)[C@@H]4C(=O)OC)[C@@H](CCC(=O)OC/C=C(\C)CCC[C@H](C)CCC[C@H](C)CCCC(C)C)[C@@H]3C.[Mg+2] [Chlorophyll A]	Fluorescence of an early stage caries lesion was observed	no known toxicity	interproximal caries observed with probe ([2]; excitation light, emission detected, FIG. 9): Interproximal caries were observed
CCN1C(=CC=CC=CC=CC2=[N+](CCCCCC(=O)O)c3ccc(S(=O)(=O)O)cc3C2(C)C)C(C)(C)c2cc(S(=O)(=O)[O-])ccc21 [Cy7]	–	–	fluorescent intensity compared to IR820 (ICG) ([4]; 1:10 and 1:100 dilutions): greater fluorescent intensity at each concentration and lesion depth compared to IR820 (ICG); retained fluorescence intensity compared to CardioGreen (ICG) ([4]; diluted 1:10): retained much greater intensity in both deep and shallow lesions compared to images of CardioGreen (ICG) diluted 1:10
OO [hydrogen peroxide]	–	–	% OsteoSense 750 removed (g) [5]: 80% and 93% and 88%
